According to patent US20060167083A1, “Therapeutic methods and compositions involving isoflav-3-ene and isoflavan structures” (priority 2002, published 2006):

Legend:
Format in all cases: biochemical
human topo I [1] = molecular target: T1, human topo I (Homo sapiens, UniProt P11387); experiment: Topo I-mediated plasmid relaxation assay; details: 10 μg/ml
T1 construct: purchased Topogen (Columbus, Ohio)
T1 sequence (P11387 1-765): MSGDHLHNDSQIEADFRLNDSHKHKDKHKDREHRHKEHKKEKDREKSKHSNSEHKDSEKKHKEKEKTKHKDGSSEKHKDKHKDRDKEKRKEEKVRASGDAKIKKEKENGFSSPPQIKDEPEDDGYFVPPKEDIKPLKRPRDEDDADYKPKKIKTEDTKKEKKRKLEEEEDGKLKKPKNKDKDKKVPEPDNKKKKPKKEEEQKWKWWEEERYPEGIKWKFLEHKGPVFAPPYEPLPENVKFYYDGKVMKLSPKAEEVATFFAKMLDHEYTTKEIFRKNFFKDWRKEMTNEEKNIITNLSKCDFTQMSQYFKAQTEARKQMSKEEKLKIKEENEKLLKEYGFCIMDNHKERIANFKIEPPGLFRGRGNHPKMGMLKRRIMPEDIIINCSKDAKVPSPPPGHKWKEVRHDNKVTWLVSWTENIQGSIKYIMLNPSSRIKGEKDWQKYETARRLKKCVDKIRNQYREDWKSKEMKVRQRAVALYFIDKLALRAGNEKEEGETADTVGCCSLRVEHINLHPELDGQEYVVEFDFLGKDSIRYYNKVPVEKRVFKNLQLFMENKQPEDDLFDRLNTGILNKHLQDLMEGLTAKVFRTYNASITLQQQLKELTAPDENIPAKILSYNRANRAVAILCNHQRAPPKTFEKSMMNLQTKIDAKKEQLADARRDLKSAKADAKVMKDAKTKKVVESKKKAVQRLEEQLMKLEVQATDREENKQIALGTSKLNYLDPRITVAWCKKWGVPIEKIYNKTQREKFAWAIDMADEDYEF
Procedure: Topo I activity was determined by converting supercoiled pUC8 DNA (SC) into its relaxed from (REL).
For the determination of topoisomerase (topo) I catalytic activity, pUC8 DNA was used as the substrate in a reaction volume of 20 μl containing the following: 10 mM Tris-HCl, pH 7.9, 1 mM EDTA, 150 mM NaCl, 0.1% BSA, 0.1 mM spermidine, 5% glycerol, and 2 units of purified human topo I. The inhibitor, when applicable, was added as indicated, and the reaction was initiated by the addition of the enzyme. Reactions were carried out at 37° C. for 30 min. Gel electrophoresis was performed at 4 V/cm for 5 h in Tris-borate-EDTA buffer. For the quantitative determination of topo I activity, photographic negatives were scanned. The area representing supercoiled DNA, migrating as a single band at the bottom of the gel, was determined. The concentrations of the inhibitor that prevented 50% of the supercoiled DNA from being converted into relaxed DNA (IC50 values) were determined by averaging the data from at least three experiments.

human topo I [2] = molecular target: T1, human topo I; experiment: Topo I-mediated plasmid-nicking assay; details: 10 and 100 μg/ml (FIG. 4 lanes 5 and 6)
Procedure: Single-strand DNA breakage was determined by converting relaxed (REL) or supercoiled (SC) pUC8 DNA to the nicked form (NIC).
Under the electrophoretic conditions that were used in the experiment shown in FIG. 4, covalently closed circular (supercoiled or relaxed) plasmid DNA migrates on the bottom of the gel. In the presence of a topo I poison that stabilises the cleavable complex, and following denaturation and degradation of the enzyme with proteinase K/SDS, the resulting nicked DNA migrates on the top of the gel.
Topo I poisons enhance topo I-mediated pUC8 DNA cleavage under the reaction conditions provided by the supplier of the enzyme (Topogen, Inc.). Briefly, 20 μl of reaction mixtures contained 10 mM Tris-HCl, pH 7.5, 1 mM EDTA, 100 mM NaCl, 1 μl of the test agent (or solvent), 0.5 μg of pUC8, and 10 units of human topo I (added last). After a 30-min incubation at 37° C., SDS-proteinase K was added, and, following a 30-min incubation at 37° C., samples were extracted with CHCl3-isopropanol and electrophoresed on a 1% agarose gel containing 0.5 μg/ml ethidium bromide. Gels were photographed, and photographic negatives were scanned.

human topo II = molecular target: T2, human topo II (Homo sapiens, UniProt P11388); experiment: Topo II-mediated plasmid linearisation assay
T2 construct: purchased Topogen (Columbus, Ohio)
T2 sequence (P11388 whole entry): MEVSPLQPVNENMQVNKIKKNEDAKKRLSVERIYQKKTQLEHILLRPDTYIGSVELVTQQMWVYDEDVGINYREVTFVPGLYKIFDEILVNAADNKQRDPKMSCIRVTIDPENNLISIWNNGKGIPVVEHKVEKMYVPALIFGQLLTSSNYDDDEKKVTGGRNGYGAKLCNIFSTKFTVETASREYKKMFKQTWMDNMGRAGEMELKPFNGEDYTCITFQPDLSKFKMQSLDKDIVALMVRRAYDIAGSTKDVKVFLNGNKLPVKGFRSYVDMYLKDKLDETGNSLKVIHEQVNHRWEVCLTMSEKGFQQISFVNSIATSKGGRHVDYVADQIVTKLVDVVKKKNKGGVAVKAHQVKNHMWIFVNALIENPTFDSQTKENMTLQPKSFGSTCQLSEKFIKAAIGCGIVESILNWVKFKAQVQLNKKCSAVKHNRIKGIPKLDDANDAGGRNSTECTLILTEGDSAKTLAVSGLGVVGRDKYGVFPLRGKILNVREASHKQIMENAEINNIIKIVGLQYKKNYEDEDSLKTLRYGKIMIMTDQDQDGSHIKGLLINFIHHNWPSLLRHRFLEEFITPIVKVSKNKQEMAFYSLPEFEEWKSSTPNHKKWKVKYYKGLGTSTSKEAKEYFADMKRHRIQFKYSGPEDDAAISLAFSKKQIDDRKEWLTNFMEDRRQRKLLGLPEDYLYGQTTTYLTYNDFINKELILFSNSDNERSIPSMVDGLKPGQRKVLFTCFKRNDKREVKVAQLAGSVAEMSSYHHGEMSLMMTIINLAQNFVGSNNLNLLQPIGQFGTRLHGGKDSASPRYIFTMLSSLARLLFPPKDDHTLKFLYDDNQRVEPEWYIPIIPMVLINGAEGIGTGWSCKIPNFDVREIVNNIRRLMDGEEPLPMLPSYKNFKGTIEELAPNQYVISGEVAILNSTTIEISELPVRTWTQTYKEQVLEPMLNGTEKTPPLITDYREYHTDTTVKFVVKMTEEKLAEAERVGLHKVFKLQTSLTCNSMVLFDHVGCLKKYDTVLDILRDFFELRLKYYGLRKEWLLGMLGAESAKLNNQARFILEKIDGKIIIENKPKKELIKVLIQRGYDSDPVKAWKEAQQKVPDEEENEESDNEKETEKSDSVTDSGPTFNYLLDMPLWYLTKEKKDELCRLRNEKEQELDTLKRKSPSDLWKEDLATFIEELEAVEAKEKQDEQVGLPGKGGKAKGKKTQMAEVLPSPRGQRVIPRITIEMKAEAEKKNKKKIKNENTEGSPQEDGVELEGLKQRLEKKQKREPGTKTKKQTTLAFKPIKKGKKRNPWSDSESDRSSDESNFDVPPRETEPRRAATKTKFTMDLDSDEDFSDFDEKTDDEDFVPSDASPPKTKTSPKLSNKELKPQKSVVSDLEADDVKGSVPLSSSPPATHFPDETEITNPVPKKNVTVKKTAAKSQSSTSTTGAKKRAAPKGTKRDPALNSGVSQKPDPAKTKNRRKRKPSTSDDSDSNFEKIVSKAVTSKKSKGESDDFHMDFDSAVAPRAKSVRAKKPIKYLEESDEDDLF
Procedure: FIG. 3 represents an assay for determining the effect of dehydroequol on double-stranded DNA cleavage. pRYG DNA was incubated with ten units of human topo II (lanes 2-6) in the absence (lane 1) or presence of 10, 30, or 100 μg/ml dehydroequol (lanes 2-4), or 30 μg/ml genistein (lane 5), or 10 μg/ml VP-16 (lane 6). Lane 7, linear pUC8 DNA marker. Double-strand DNA breakage was determined by converting relaxed (REL) or supercoiled (SC) pRYG DNA to the linear (LIN) form.
A linearisation assay was employed to determine if dehydroequol is a topo II poison. Double-strand breakage results in the appearance of linear DNA. […] This effect, which was evident at 10 μg/ml, peaked at 30 μg/ml.
Topo II poisons enhance topo II-mediated DNA cleavage and can be identified with the linearisation assay under the reaction conditions provided by the supplier of the enzyme (Topogen, Inc.). Briefly, 20-μl reaction mixtures contained 30 mM Tris-HCl, pH 7.6, 3 mM ATP, 15 mM β-mercaptoethanol, 8 mM MgCl2, 60 mM NaCl, 1 μl of the test agent (or solvent), 0.3 μg of pRYG, and 10 units of human topo II (added last). After a 15-min incubation at 37° C., SDS-proteinase K was added, and following a 15 min incubation at 37° C., samples were extracted with CHCl3-isopropanol and electrophoresis was performed on a 1% agarose gel containing ethidium bromide. Gels were photographed, and photographic negatives were scanned.

| Compound | inhibition of topo I-catalysed relaxation of pUC8 DNA (positive control) (human topo I [1]) | topo I-mediated single-strand DNA breakage (nicked DNA), positive control (human topo I [2]) | concentration producing detectable (comparable) topo II-mediated linear plasmid DNA (human topo II) [µg/mL] |
| --- | --- | --- | --- |
| CC[C@@]1(O)C(=O)OCc2c1cc1n(c2=O)Cc2cc3ccccc3nc2-1 [Camptothecin, reference compound] | prevents pUC8 DNA relaxation | produced single-strand DNA cleavage |  |
| O=c1c(-c2ccc(O)cc2)coc2cc(O)cc(O)c12 [genistein, reference compound] |  |  | 30 |
